This note sets out measurements from patent US12391648B2, “Pyridyloxy thioester derivative and preparation method therefor, herbicidal composition, and application” (Qingdao Kingagroot Chemical Compound Co., Ltd., priority 2018, dated 2025).

Common to all, as to assay: Post-emergence test experiment (Table 3, 1000 g/ha)
Common to all, as to assay type: in vivo
What all share (settings): post-emergence spray, after 3 weeks, fresh weight inhibition

For experiment [1], the system named is Abutilon theophrasti. Put shortly: (§1)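 Weed seeds sown in soil-filled pots in greenhouse, sprayed at 2-3 leaf stage (2 weeks after sowing) with compound in acetone/tween-80 plus methyl oleate emulsible concentrate (1.5 L/ha) diluted in water. Fresh-weight growth inhibition scored after 3 weeks on 0-5 scale (5: >85%, 0: <5%).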
The subject of experiment [2] is Digitaria sanguinalis. Put shortly: as §1
The subject of experiment [3] is Galium spurium. In a few lines: as §1
Experiment [4] deals with Leptochloa chinensis. In a few lines: as §1
The subject of experiment [5] is Monochoria vaginalis. In a few lines: as §1
For experiment [6], the system named is Setaria viridis. Put shortly:
as §1

Turning to `Cc1cn(C)nc1SC(=O)C(C)Oc1nc(F)c(Cl)c(N)c1Cl` (stereo not drawn) [Compound 119], the “Activity level (growth inhibition rate) Abutilon theophrasti” value in experiment [1] is recorded as 5 (Level 5: the growth inhibition rate is greater than 85%). The “Activity level (growth inhibition rate) Digitaria sanguinalis” value in experiment [2] is listed as 5 (Level 5: the growth inhibition rate is greater than 85%). In addition, the “Activity level (growth inhibition rate) Galium spurium” value in experiment [3] is listed as 5 (Level 5: the growth inhibition rate is greater than 85%). The “Activity level (growth inhibition rate) Leptochloa chinensis” value in experiment [4] is recorded as 5 (Level 5: the growth inhibition rate is greater than 85%). Further, the “Activity level (growth inhibition rate) Monochoria Vaginalis” value in experiment [5] is 5 (Level 5: the growth inhibition rate is greater than 85%). In addition, the “Activity level (growth inhibition rate) Setaria viridis” value in experiment [6] is on record as 5 (Level 5: the growth inhibition rate is greater than 85%).
Take `CC(Oc1nc(F)c(Cl)c(N)c1Cl)C(=O)Sc1ccoc1` (stereo not drawn) [Compound 120]: the “Activity level (growth inhibition rate) Abutilon theophrasti” value in experiment [1] was 5 (Level 5: the growth inhibition rate is greater than 85%). Also, the “Activity level (growth inhibition rate) Digitaria sanguinalis” value in experiment [2] was 5 (Level 5: the growth inhibition rate is greater than 85%). The “Activity level (growth inhibition rate) Galium spurium” value in experiment [3] is listed as 5 (Level 5: the growth inhibition rate is greater than 85%). Besides, the “Activity level (growth inhibition rate) Leptochloa chinensis” value in experiment [4] is on record as 5 (Level 5: the growth inhibition rate is greater than 85%). In experiment [5], the “Activity level (growth inhibition rate) Monochoria Vaginalis” value is recorded as 5 (Level 5: the growth inhibition rate is greater than 85%). In addition, the “Activity level (growth inhibition rate) Setaria viridis” value in experiment [6] is recorded as 5 (Level 5: the growth inhibition rate is greater than 85%).
Turning to `CC(Oc1nc(F)c(Cl)c(N)c1Cl)C(=O)Sc1cccs1` (stereo not drawn) [Compound 121], in experiment [1], the “Activity level (growth inhibition rate) Abutilon theophrasti” value is 5 (Level 5: the growth inhibition rate is greater than 85%). Besides, the “Activity level (growth inhibition rate) Digitaria sanguinalis” value in experiment [2] is on record as 5 (Level 5: the growth inhibition rate is greater than 85%). Moreover, in experiment [3], the “Activity level (growth inhibition rate) Galium spurium” value is on record as 5 (Level 5: the growth inhibition rate is greater than 85%). In experiment [4], the “Activity level (growth inhibition rate) Leptochloa chinensis” value is reported as 5 (Level 5: the growth inhibition rate is greater than 85%). The “Activity level (growth inhibition rate) Monochoria Vaginalis” value in experiment [5] is on record as 5 (Level 5: the growth inhibition rate is greater than 85%). The “Activity level (growth inhibition rate) Setaria viridis” value in experiment [6] is 5 (Level 5: the growth inhibition rate is greater than 85%).
`CC(Oc1nc(F)c(Cl)c(N)c1Cl)C(=O)Sc1cccn1C` (stereo not drawn) [Compound 122]: the “Activity level (growth inhibition rate) Abutilon theophrasti” value in experiment [1] is 5 (Level 5: the growth inhibition rate is greater than 85%). Besides, the “Activity level (growth inhibition rate) Digitaria sanguinalis” value in experiment [2] is given as 5 (Level 5: the growth inhibition rate is greater than 85%). Moreover, the “Activity level (growth inhibition rate) Galium spurium” value in experiment [3] is 5 (Level 5: the growth inhibition rate is greater than 85%). Besides, in experiment [4], the “Activity level (growth inhibition rate) Leptochloa chinensis” value was 5 (Level 5: the growth inhibition rate is greater than 85%). Moreover, the “Activity level (growth inhibition rate) Monochoria Vaginalis” value in experiment [5] is reported as 5 (Level 5: the growth inhibition rate is greater than 85%). Also, in experiment [6], the “Activity level (growth inhibition rate) Setaria viridis” value is reported as 5 (Level 5: the growth inhibition rate is greater than 85%).
Consider `CC(Oc1nc(F)c(Cl)c(N)c1Cl)C(=O)Sc1cn(C)cn1` (stereo not drawn) [Compound 123], for which the “Activity level (growth inhibition rate) Abutilon theophrasti” value in experiment [1] is 5 (Level 5: the growth inhibition rate is greater than 85%). Further, the “Activity level (growth inhibition rate) Digitaria sanguinalis” value in experiment [2] is 5 (Level 5: the growth inhibition rate is greater than 85%). For the same molecule, the “Activity level (growth inhibition rate) Galium spurium” value in experiment [3] is given as 5 (Level 5: the growth inhibition rate is greater than 85%). Besides, the “Activity level (growth inhibition rate) Leptochloa chinensis” value in experiment [4] is reported as 5 (Level 5: the growth inhibition rate is greater than 85%). In addition, the “Activity level (growth inhibition rate) Monochoria Vaginalis” value in experiment [5] is 5 (Level 5: the growth inhibition rate is greater than 85%). Also, the “Activity level (growth inhibition rate) Setaria viridis” value in experiment [6] was 5 (Level 5: the growth inhibition rate is greater than 85%).
Regarding `CC(Oc1nc(F)c(Cl)c(N)c1Cl)C(=O)SC1CCC1` (stereo not drawn) [Compound 124], in experiment [1], the “Activity level (growth inhibition rate) Abutilon theophrasti” value was 5 (Level 5: the growth inhibition rate is greater than 85%). Besides, the “Activity level (growth inhibition rate) Digitaria sanguinalis” value in experiment [2] is on record as 5 (Level 5: the growth inhibition rate is greater than 85%). In addition, the “Activity level (growth inhibition rate) Galium spurium” value in experiment [3] is reported as 5 (Level 5: the growth inhibition rate is greater than 85%). The “Activity level (growth inhibition rate) Leptochloa chinensis” value in experiment [4] was 5 (Level 5: the growth inhibition rate is greater than 85%). Also, the “Activity level (growth inhibition rate) Monochoria Vaginalis” value in experiment [5] is on record as 5 (Level 5: the growth inhibition rate is greater than 85%). In addition, the “Activity level (growth inhibition rate) Setaria viridis” value in experiment [6] was 5 (Level 5: the growth inhibition rate is greater than 85%).
As to `CC(Oc1nc(F)c(Cl)c(N)c1Cl)C(=O)SC1CCCC1` (stereo not drawn) [Compound 125], the “Activity level (growth inhibition rate) Abutilon theophrasti” value in experiment [1] is listed as 5 (Level 5: the growth inhibition rate is greater than 85%). Further, the “Activity level (growth inhibition rate) Digitaria sanguinalis” value in experiment [2] is 5 (Level 5: the growth inhibition rate is greater than 85%). The “Activity level (growth inhibition rate) Galium spurium” value in experiment [3] is recorded as 5 (Level 5: the growth inhibition rate is greater than 85%). For the same molecule, the “Activity level (growth inhibition rate) Leptochloa chinensis” value in experiment [4] was 5 (Level 5: the growth inhibition rate is greater than 85%). The “Activity level (growth inhibition rate) Monochoria Vaginalis” value in experiment [5] is given as 5 (Level 5: the growth inhibition rate is greater than 85%). For the same molecule, in experiment [6], the “Activity level (growth inhibition rate) Setaria viridis” value was 5 (Level 5: the growth inhibition rate is greater than 85%).
As for `CNc1c(Cl)c(F)nc(OC(C)C(=O)SC)c1Cl` (stereo not drawn) [Compound 127], the “Activity level (growth inhibition rate) Abutilon theophrasti” value in experiment [1] is on record as 5 (Level 5: the growth inhibition rate is greater than 85%). Besides, in experiment [2], the “Activity level (growth inhibition rate) Digitaria sanguinalis” value is on record as 5 (Level 5: the growth inhibition rate is greater than 85%). In experiment [3], the “Activity level (growth inhibition rate) Galium spurium” value is reported as 5 (Level 5: the growth inhibition rate is greater than 85%). For the same molecule, the “Activity level (growth inhibition rate) Leptochloa chinensis” value in experiment [4] was 5 (Level 5: the growth inhibition rate is greater than 85%). The “Activity level (growth inhibition rate) Monochoria Vaginalis” value in experiment [5] is listed as 5 (Level 5: the growth inhibition rate is greater than 85%). Further, in experiment [6], the “Activity level (growth inhibition rate) Setaria viridis” value is on record as 5 (Level 5: the growth inhibition rate is greater than 85%).
Consider `CCNc1c(Cl)c(F)nc(OC(C)C(=O)SC)c1Cl` (stereo not drawn) [Compound 128], for which, in experiment [1], the “Activity level (growth inhibition rate) Abutilon theophrasti” value is reported as 5 (Level 5: the growth inhibition rate is greater than 85%). Besides, in experiment [2], the “Activity level (growth inhibition rate) Digitaria sanguinalis” value is reported as 5 (Level 5: the growth inhibition rate is greater than 85%). Moreover, in experiment [3], the “Activity level (growth inhibition rate) Galium spurium” value was 5 (Level 5: the growth inhibition rate is greater than 85%). In experiment [4], the “Activity level (growth inhibition rate) Leptochloa chinensis” value is 5 (Level 5: the growth inhibition rate is greater than 85%). In experiment [5], the “Activity level (growth inhibition rate) Monochoria Vaginalis” value was 5 (Level 5: the growth inhibition rate is greater than 85%). In experiment [6], the “Activity level (growth inhibition rate) Setaria viridis” value is 5 (Level 5: the growth inhibition rate is greater than 85%).
For `CSC(=O)C(C)Oc1nc(F)c(Cl)c(NC(C)=O)c1Cl` (stereo not drawn) [Compound 129], the “Activity level (growth inhibition rate) Abutilon theophrasti” value in experiment [1] is listed as 5 (Level 5: the growth inhibition rate is greater than 85%). Moreover, the “Activity level (growth inhibition rate) Digitaria sanguinalis” value in experiment [2] is listed as 5 (Level 5: the growth inhibition rate is greater than 85%). Also, the “Activity level (growth inhibition rate) Galium spurium” value in experiment [3] is on record as 5 (Level 5: the growth inhibition rate is greater than 85%). Also, in experiment [4], the “Activity level (growth inhibition rate) Leptochloa chinensis” value is given as 5 (Level 5: the growth inhibition rate is greater than 85%). Further, the “Activity level (growth inhibition rate) Monochoria Vaginalis” value in experiment [5] is 5 (Level 5: the growth inhibition rate is greater than 85%). The “Activity level (growth inhibition rate) Setaria viridis” value in experiment [6] is given as 5 (Level 5: the growth inhibition rate is greater than 85%).
Consider `CSC(=O)C(C)Oc1nc(F)c(Cl)c(NC(=O)c2ccccc2)c1Cl` (stereo not drawn) [Compound 131], for which, in experiment [1], the “Activity level (growth inhibition rate) Abutilon theophrasti” value was 5 (Level 5: the growth inhibition rate is greater than 85%). Besides, the “Activity level (growth inhibition rate) Digitaria sanguinalis” value in experiment [2] is given as 5 (Level 5: the growth inhibition rate is greater than 85%). In experiment [3], the “Activity level (growth inhibition rate) Galium spurium” value is 5 (Level 5: the growth inhibition rate is greater than 85%). In addition, the “Activity level (growth inhibition rate) Leptochloa chinensis” value in experiment [4] is on record as 5 (Level 5: the growth inhibition rate is greater than 85%). For the same molecule, the “Activity level (growth inhibition rate) Monochoria Vaginalis” value in experiment [5] is given as 5 (Level 5: the growth inhibition rate is greater than 85%). For the same molecule, the “Activity level (growth inhibition rate) Setaria viridis” value in experiment [6] is 5 (Level 5: the growth inhibition rate is greater than 85%).
With `CSC(=O)C(C)Oc1nc(F)c(Cl)c(NCc2ccccc2)c1Cl` (stereo not drawn) [Compound 132], in experiment [1], the “Activity level (growth inhibition rate) Abutilon theophrasti” value is reported as 5 (Level 5: the growth inhibition rate is greater than 85%). Also, in experiment [2], the “Activity level (growth inhibition rate) Digitaria sanguinalis” value is given as 5 (Level 5: the growth inhibition rate is greater than 85%). Moreover, in experiment [3], the “Activity level (growth inhibition rate) Galium spurium” value is reported as 5 (Level 5: the growth inhibition rate is greater than 85%). The “Activity level (growth inhibition rate) Leptochloa chinensis” value in experiment [4] is recorded as 5 (Level 5: the growth inhibition rate is greater than 85%). Besides, the “Activity level (growth inhibition rate) Monochoria Vaginalis” value in experiment [5] is reported as 5 (Level 5: the growth inhibition rate is greater than 85%). For the same molecule, in experiment [6], the “Activity level (growth inhibition rate) Setaria viridis” value is 5 (Level 5: the growth inhibition rate is greater than 85%).
As for `CC(C)CSC(=O)C(C)Oc1nc(F)c(Cl)c(N)c1Cl` (stereo not drawn) [Compound 133], the “Activity level (growth inhibition rate) Abutilon theophrasti” value in experiment [1] was 5 (Level 5: the growth inhibition rate is greater than 85%). For the same molecule, the “Activity level (growth inhibition rate) Digitaria sanguinalis” value in experiment [2] is listed as 5 (Level 5: the growth inhibition rate is greater than 85%). Further, the “Activity level (growth inhibition rate) Galium spurium” value in experiment [3] was 5 (Level 5: the growth inhibition rate is greater than 85%). The “Activity level (growth inhibition rate) Leptochloa chinensis” value in experiment [4] is 5 (Level 5: the growth inhibition rate is greater than 85%). For the same molecule, the “Activity level (growth inhibition rate) Monochoria Vaginalis” value in experiment [5] is 5 (Level 5: the growth inhibition rate is greater than 85%). Moreover, the “Activity level (growth inhibition rate) Setaria viridis” value in experiment [6] is 5 (Level 5: the growth inhibition rate is greater than 85%).
